Key:
[1] = target: T1, hM3 muscarinic receptor subtype (Homo sapiens, UniProt P20309); assay: Radioligand binding assay on muscarinic receptor subtypes ([3H]-NMS displacement)
T1 construct: expressed in transfected cells; crude membranes prepared in house
Description: CHO cell lines stably expressing cloned human hM1, hM2, hM3 and hM4 muscarinic receptor subtypes, respectively, were grown to near confluency in medium consisting of HAM's F-12 supplemented with 10% FBS and 250 μg/mL Geneticin. The cells were grown in a 5% CO2, 37° C. incubator and lifted with 2 mM EDTA in dPBS. Cells were collected by 5 minute centrifugation at 650×g, and cell pellets were either stored frozen at −80° C. or membranes were prepared immediately. For membrane preparation, cell pellets were resuspended in lysis buffer and homogenized with a Polytron PT-2100 tissue disrupter (Kinematica AG; 20 seconds×2 bursts). Crude membranes were centrifuged at 40,000×g for 15 minutes at 4° C. […] The protein concentration of the membrane suspension was determined by the method described in Lowry, O. et al., Journal of Biochemistry 193:265 (1951). […]
Radioligand binding assays were performed in 96-well microtiter plates in a total assay volume of […]. […] Filter plates were rinsed three times with wash buffer (10 mM HEPES) to remove unbound radioactivity. […] The plates were then counted in a PerkinElmer Topcount liquid scintillation counter (PerkinElmer Inc., Wellesley, Mass.). Binding data were analyzed by nonlinear regression analysis with the GraphPad Prism Software package (GraphPad Software, Inc., San Diego, Calif.) using the one-site competition model. […]

MCh response = assay: Rat Einthoven assay (bronchoprotection); format: in vivo; details: inhalation; for ID50 (bronchoprotection): 1.5 hrs post-dose
Description: All test compounds are diluted in sterile water and are dosed via the inhalation route (IH). The rats (Sprague-Dawley, male, 250-350 g) are exposed to the aerosol generated from an LC Star Nebulizer Set and driven by a mixture of gases (5% CO2/95% atmospheric air). Each test compound solution is nebulized over a 10 minute time period in a pie shaped dosing chamber capable of holding six rats. At predetermined time points after inhalation of compound, the Einthoven assay is performed.
Thirty minutes prior to the start of pulmonary evaluation, the animals are anesthetized with inactin (thiobutabarbital, 120 mg/kg IP). The jugular vein is catheterized with saline filled polyethylene catheters (PE-50) and used to infuse MCh. The trachea is then dissected and cannulated with a 14G needle and used for rat ventilation during pulmonary evaluation. Once surgery is complete, rats are ventilated using a piston respirator set at a stroke volume of 1 ml/100 g body weight but not exceeding 2.5 ml volume, and at a rate of 90 strokes per minute.
The changes in pressure that occur with each breath are measured. Baseline values are collected for at least 2.5 minutes then rats are challenged non-cumulatively with 2-fold incremental increases of the bronchoconstrictor MCh (5, 10, 20, 40 and 80 μg/ml). The MCh is infused for 2.5 minutes from a syringe pump at a rate of 2 mL/kg/min. The animals are euthanized upon completion of the studies.
Changes in ventilation pressure (cm H2O) in treated animals are expressed as % inhibition of MCh response relative to control animals.
Standard muscarinic antagonists were evaluated in the rat Einthoven assay 1.5 hrs post-dose.
Standards tiotropium and ipratropium were also evaluated 24 hr and/or 6 hr post-dose in the rat Einthoven assay. […] The observed loss of activity at this time point (6 hr) is consistent with its relatively short duration of action in the clinic.

[2] = tested on: pilocarpine-induced salivation; assay: Rat antisialagogue assay; format: in vivo; details: evaluated at 1, 6, and 24 hr post-dose
Description: Rats (Sprague-Dawley, male, 250-350 g) are dosed, anesthetized and cannulated as described for Assay 3. At predetermined time points and after surgery, animals are placed on their dorsal side at a 200 incline with their head in a downward slope. A pre-weighed gauze pad is inserted in the animal's mouth and the muscarinic agonist pilocarpine (PILO) (3 mg/kg, iv.) is administered. Saliva produced during 10 minutes post-PILO is measured gravimetrically by determining the weight of the gauze pad before and after PILO. Antisialagogue effects are expressed as % inhibition of salivation relative to control animals.
The rat antisialagogue assay was developed to assess systemic exposure and calculate the lung selectivity index (LSI) of test compounds. The standard, tiotropium, was evaluated in this model at 1, 6, and 24 hr post-dose. […] This finding is consistent with the peak effects observed in the Einthoven assay.
This model is a modified version of the procedure described in Rechter, “Estimation of anticholinergic drug effects in mice by antagonism against pilocarpine-induced salivation” Ata Pharmacol Toxicol 24:243-254 (1996). The mean weight of saliva in vehicle-treated animals, at each pre-treatment time, is calculated and used to compute % inhibition of salivation, at the corresponding pre-treatment time, at each dose.

T1 sequence (P20309 whole entry): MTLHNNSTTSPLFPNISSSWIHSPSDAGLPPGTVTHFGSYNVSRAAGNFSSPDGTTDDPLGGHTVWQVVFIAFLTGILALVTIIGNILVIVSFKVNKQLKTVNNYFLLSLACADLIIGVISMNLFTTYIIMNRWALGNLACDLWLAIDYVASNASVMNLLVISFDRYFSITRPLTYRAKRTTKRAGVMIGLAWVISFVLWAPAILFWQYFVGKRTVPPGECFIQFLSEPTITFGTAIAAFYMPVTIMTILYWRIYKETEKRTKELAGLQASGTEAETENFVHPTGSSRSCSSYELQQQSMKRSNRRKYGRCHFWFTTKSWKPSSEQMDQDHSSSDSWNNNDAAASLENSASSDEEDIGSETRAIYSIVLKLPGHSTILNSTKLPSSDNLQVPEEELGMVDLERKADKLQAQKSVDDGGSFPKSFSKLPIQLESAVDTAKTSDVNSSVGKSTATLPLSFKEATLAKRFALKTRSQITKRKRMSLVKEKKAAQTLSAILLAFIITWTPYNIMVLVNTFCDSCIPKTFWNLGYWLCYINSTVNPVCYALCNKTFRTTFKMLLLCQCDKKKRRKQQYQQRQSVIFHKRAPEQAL

For `C[N+]1(CCCSc2ccccc2)CC[C@@H](C(C(N)=O)(c2ccccc2)c2ccccc2)C1` (stereo partly drawn) [Example 2, (S)-3-(Carbamoyldiphenylmethyl)-1-methyl-1-(3-phenylsulfanylpropyl)pyrrolidinium], the Ki [1] was < 500 pM.
With `C[N+]1(C)CCC(OC(=O)C(O)(c2ccccc2)C2CCCC2)C1` (stereo not shown) [glycopyrrolate] the “ID50 (bronchoprotection)” value (MCh response) was 15 µg/mL.
`CC(C)[N+]1(C)[C@@H]2CC[C@H]1C[C@@H](OC(=O)C(CO)c1ccccc1)C2` (stereo partly shown) [ipratropium] was tested, and the “fold less potent 6-hr post-dose compared to 1.5 hr potency” value (MCh response; 10 and 30 μg/ml) was “about 3 fold” and the “ID50 (bronchoprotection)” value (MCh response) was 4.4 µg/mL.
In the case of `C[N+]1(C)[C@@H]2C[C@@H](OC(=O)C(O)(c3cccs3)c3cccs3)C[C@H]1[C@@H]1O[C@@H]12` [tiotropium], the “6 hr versus 24 hr potency values” (MCh response) is reported as “not significantly different”, the “fold more potent at 6 hr and 24 hr compared to 1.5 hr potency” value (MCh response) is reported as “about 2 fold” and the onset of effect (MCh response) is reported as “slow onset of effect”. For the same molecule, the “time of peak bronchoprotection post-dose” value (MCh response) was 6 h, the “ID50 (bronchoprotection)” value (MCh response) was 6 µg/mL and the “time post dose at which most potent at inhibiting pilocarpine-induced salivation” value [2] was 6 h.
